“And” between values parts separate entries of the source, which are not always exact repeats. Equal values may be shown once.
Columns and labels:
[1] = tested on: three grassy weeds (wild oat, watergrass, foxtail); set-up: species or system Avena fatua, Echinochloa crusgalli, Setaria viridis; settings: in vivo
[2] = tested on: three broadleaf weeds (morning glory, mustard, velvetleaf); set-up: species or system Ipomoea purpurea, Brassica kaber, Abutilon theophrasti; settings: in vivo
[3] = tested on: yellow nutsedge; set-up: species or system Cyperus esculentus; settings: in vivo
[4] = tested on: three broadleaf weeds (morning glory, mustard, velvetleaf); set-up: species or system Ipomoea purpurea, Brassica kaber, Abutilon theophrasti; settings: in vivo; remark: listed apart in the source
[5] = tested on: yellow nutsedge; set-up: species or system Cyperus esculentus; settings: in vivo; remark: listed apart in the source
[6] = tested on: four grassy weeds: wild oat, watergrass, green foxtail and crabgrass; test: Post-emergence herbicidal activity, grassy weeds (Table III); assay type: in vivo; settings: 2.24 kg/ha, 2-3 weeks after treatment
Experimental: (§1) The herbicidal effect was observed by comparing the extent of weed control in test flats treated with the compounds against that occurring in similar non-treated control flats. All were applied at 3.57 lb/A (4 kg/ha) to pre-emergence and post-emergence screening flats. An 80 gal/A (748.3 1/ha) spray volume was utilized. Post-emergence flats were seeded 12 days prior to treatment. Pre-emergence flats were seeded one day prior to treatment. Overhead watering of pre-emergence flats and soil surface watering of post-emergence flats, so as to avoid wetting the foliage, were carried out for the duration of the test.
(§2) Weed seeds were planted in a flat at a seed depth of 0.5 inch (1.3 cm). Soil for flats was prepared using loam soil fortified with 17-17-17 fertilizer (N-P2 O5 -K2 O on a weight basis) and Captan 80W fungicide. The test weeds were as follows:
(§3) The spray solutions were prepared by dissolving 240 mg of test compound in 20 ml of acetone containing 1% polyoxyethylene sorbitan monolaurate emulsifier, then adding 20 ml of water to the resulting solution. The spray solutions were applied using a linear spray table. Pre-emergence flats are raised to the level of the post-emergence foliage canopy by setting the flats on a wooden block.
(§4) The degree of weed control was visually assessed and recorded as percentage control compared to the growth of the same species in an untreated check flat of the same age. The rating scale ranges from 0 to 100%, where 0 equals no effect with plant growth equal to the untreated control, and 100 equals complete kill.
(§5) Compounds 68 to 145 in Table I were tested generally similarly to Compounds No. 1 to 67 with the following differences: The rate of application was 2 lb/acre (2.24 kg/ha), no 6-day evaluations were made, and the weeds were:
Four grassy weeds: wild oat, watergrass, green foxtail and crabgrass (Digitaria sanguinalis);
(§6) Ratings were taken 2-3 weeks after treatment.

[7] = tested on: three broadleaf weeds: wild mustard, redroot pigweed and curly dock; test: Post-emergence herbicidal activity, broadleaf weeds (Table III); assay type: in vivo, Brassica kaber, Amaranthus retroflexus, Rumex crispus; settings: 2.24 kg/ha, 2-3 weeks after treatment
Experimental: as §1, §2, §3, §4, §5
Three broadleaf weeds: wild mustard, redroot pigweed (Amaranthus retroflexus) and curly dock (Rumex crispus).
as §6

| Compound | % Control, Pre-emergence, GR avg. [1] [%] | % Control, Pre-emergence, BL avg. [2] [%] | % Control, Pre-emergence, NS [3] [%] | % Control, Post-emergence, BL avg. [4] | % Control, Post-emergence, NS [5] | % Control, Post-Emergence, GR Avg. [6] [%] | % Control, Post-Emergence, BL Avg. [7] [%] |
| --- | --- | --- | --- | --- | --- | --- | --- |
| CCCCCN(CCCCC)P(=O)(SCCC)N(C)c1ccc(Cl)cc1 (stereo not shown) [Compound 17] | 57 | 33 | 0 | 50% and 43% | 10% and 0% | – | – |
| CCCSP(=O)(N(CCC)CCC)N(C)c1ccc(OC)cc1C (stereo not shown) [Compound 65] | 0 | 0 | 0 | 70% and 76% | 0% | – | – |
| CCCSP(=O)(N(CCC)CCC)N(C)c1ccc(C#N)cc1 (stereo not shown) [Compound 41] | 0 | 0 | 0 | – | 0% | – | – |
| CCCSP(=O)(N(CC)CC)N(CC)CC [Compound 68] | – | – | – | – | – | 40 | 87 |
| CCCCSP(=O)(N(C)C)N(CCCC)CCCC (stereo not shown) [Compound 110] | – | – | – | – | – | 93 | 98 |
| CCCCN(CCCC)P(=O)(SCC)N(C)C (stereo not shown) [Compound 107] | – | – | – | – | – | 64 | 98 |
| CCCCN(CC)P(=O)(SC(C)c1ccccc1)N(CC)CC (stereo not shown) [Compound 143] | – | – | – | – | – | 52 | 69 |
| CCCSP(=O)(N(CCC)CCC)N(CC)c1ccc(F)cc1 (stereo not shown) [Compound 54] | 0 | 8 | 0 | 100% | 0% | – | – |
| CCCSP(=O)(N(CCC)CCC)N(C)c1ccccc1C(C)C (stereo not shown) [Compound 56] | 31 | 6 | 0 | 85% and 90% | 0% | – | – |
| CCCCN(CC)P(=O)(SC1CCCCC1)N(CCC)CCC (stereo not shown) [Compound 137] | – | – | – | – | – | 53 | 88 |
| CCCSP(=O)(N(CCC)CCC)N(C)c1ccc(C(C)C)cc1 (stereo not shown) [Compound 58] | 0 | 0 | 0 | 70% and 61% | 0% | – | – |
| CCCCN(CCCC)P(=O)(SCCC)N(C)c1ccc(Cl)cc1OC (stereo not shown) [Compound 18] | 0 | 0 | 0 | 30% and 60% | 0% | – | – |
| CCCCSP(=O)(N(CCC)CCC)N1CCCCC1 (stereo not shown) [Compound 74] | – | – | – | – | – | 47 | 100 |
| CCCCN(CCCC)P(=O)(SCCC)N(C)c1ccc(Cl)c(Cl)c1 (stereo not shown) [Compound 21] | 0 | 0 | 0 | 20% and 40% | 0% | – | – |
| CCCCSP(=O)(N(CC)CC)N1CCCCCC1 (stereo not shown) [Compound 93] | – | – | – | – | – | 73 | 99 |
| C=CCSP(=O)(N(C)C)N(CCCC)CCCC (stereo not shown) [Compound 112] | – | – | – | – | – | 56 | 87 |
| CCCN(CCC)P(=O)(SCC)N(CC)CC (stereo not shown) [Compound 144] | – | – | – | – | – | 59 | 78 |
| CCCN(CCC)P(=O)(Sc1cccc(Cl)c1)N(CCC)CCC [Compound 60] | 0 | 13 | 0 | 75% and 73% | 0% | – | – |
| CCCCN(CCC(C)C)P(=O)(SCCC)N(CCCC)CCC(C)C [Compound 52] | 0 | 0 | 0 | 90% and 86% | 0% | – | – |
| CCCSP(=O)(N(CCC)CCC)N(C)c1ccc(F)cc1C (stereo not shown) [Compound 64] | 3 | 0 | 0 | 85% and 93% | 0% and 5% | – | – |
| CCN(CC)P(=O)(SC(C)C)N(CC)CC [Compound 103] | – | – | – | – | – | 67 | 73 |
| CCCCN(CC)P(=O)(SCCC)N(CC)CC (stereo not shown) [Compound 139] | – | – | – | – | – | 65 | 70 |

Reference: patent publication US5189169A (priority 1991, dated 1993)
